Experimental data published in US20130184273A1, “BICYCLIC PYRIMIDINES” (Bayer Intellectual Property GmbH, priority 2010, published 2013).

Tests used:
[1] = molecular target: T1, His-tagged human recombinant kinase full-length Akt1 (Homo sapiens, UniProt P31749); test: Akt1 kinase assay (TR-FRET); assay type: biochemical; details: 10 μM ATP, 60 min at 22° C., read-out: Akt1, median IC50
T1 construct: His-tagged human recombinant kinase full-length Akt1; His; purchased Invitrogen PV 3599; host or cells: insect cells
T1 sequence (P31749 whole entry): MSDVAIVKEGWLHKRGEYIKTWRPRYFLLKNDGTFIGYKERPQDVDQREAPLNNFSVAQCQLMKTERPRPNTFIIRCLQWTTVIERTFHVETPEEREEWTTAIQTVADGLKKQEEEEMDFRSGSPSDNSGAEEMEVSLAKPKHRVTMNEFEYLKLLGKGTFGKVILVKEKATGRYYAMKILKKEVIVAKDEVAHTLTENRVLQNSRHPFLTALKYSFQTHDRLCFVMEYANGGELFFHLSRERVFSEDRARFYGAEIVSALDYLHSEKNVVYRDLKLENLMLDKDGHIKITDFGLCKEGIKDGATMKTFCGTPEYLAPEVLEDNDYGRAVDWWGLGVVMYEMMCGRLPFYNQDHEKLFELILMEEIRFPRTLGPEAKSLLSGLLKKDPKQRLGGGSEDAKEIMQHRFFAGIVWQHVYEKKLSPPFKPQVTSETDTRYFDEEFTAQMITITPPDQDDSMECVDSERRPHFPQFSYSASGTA
Source text: Akt1 inhibitory activity of compounds of the present invention was quantified employing the Akt1 TR-FRET assay as described in the following paragraphs.
(§1) His-tagged human recombinant kinase full-length Akt1 expressed in insect cells was purchased form Invitrogen (part number PV 3599). As substrate for the kinase reaction the biotinylated peptide biotin-Ahx-KKLNRTLSFAEPG (C-terminus in amide form) was used which can be purchased e.g. from the company Biosynthan GmbH (Berlin-Buch, Germany).
(§2) For the assay 50 nl of a 100 fold concentrated solution of the test compound in DMSO was pipetted into a black low volume 384well microtiter plate (Greiner Bio-One, Frickenhausen, Germany), 2 μl of a solution of Akt1 in assay buffer [50 mM TRIS/HCl pH 7.5, 5 mM MgCl2, 1 mM dithiothreitol, 0.02% (v/v) Triton X-100 (Sigma)] were added and the mixture was incubated for 15 min at 22° C. to allow pre-binding of the test compounds to the enzyme before the start of the kinase reaction. Then the kinase reaction was started by the addition of 3 μl of a solution of adenosine-tri-phosphate (ATP, 16.7 μM=>final conc. in the 5 μl assay volume is 10 μM) and substrate (1.67 μM=>final conc. in the 5 μl assay volume is 1 μM) in assay buffer and the resulting mixture was incubated for a reaction time of 60 min at 22° C. The concentration of Akt1 in the assay was adjusted depending of the activity of the enzyme lot and was chosen appropriate to have the assay in the linear range, typical enzyme concentrations were in the range of about 0.05 ng/μl (final conc. in the 5 μl assay volume).
The reaction was stopped by the addition of 5 μl of a solution of HTRF detection reagents (200 nM streptavidine-XL665 [Cisbio] and 1.5 nM anti-phosho-Serine antibody [Millipore, cat. #35-001] and 0.75 nM LANCE Eu-W 1024 labeled anti-mouse IgG antibody [Perkin Elmer]) in an aqueous EDTA-solution (100 mM EDTA, 0.1% (w/v) bovine serum albumin in 50 mM HEPES/NaOH pH 7.5). The resulting mixture was incubated 1 h at 22° C. to allow the binding of the biotinylated phosphorylated peptide to the streptavidine-XL665 and the antibodies. Subsequently the amount of phosphorylated substrate was evaluated by measurement of the resonance energy transfer from the anti-mouse-IgG-Eu-Chelate to the streptavidine-XL665. Therefore, the fluorescence emissions at 620 nm and 665 nm after excitation at 350 nm was measured in a HTRF reader, e.g. a Rubystar (BMG Labtechnologies, Offenburg, Germany) or a Viewlux (Perkin-Elmer). The ratio of the emissions at 665 nm and at […] was taken as the measure for the amount of phosphorylated substrate. The data were normalised (enzyme reaction without inhibitor=0% inhibition, all other assay components but no enzyme=100% inhibition).

[2] = molecular target: T2, His-tagged human recombinant kinase full-length Akt2 (Homo sapiens, UniProt P31751); test: Akt2 kinase assay (TR-FRET); assay type: biochemical; details: 10 μM ATP, 60 min at 22° C., read-out: Akt2, median IC50
T2 construct: His-tagged human recombinant kinase full-length Akt2; His; purchased Invitrogen PV 3975; host or cells: insect cells
T2 sequence (P31751 whole entry): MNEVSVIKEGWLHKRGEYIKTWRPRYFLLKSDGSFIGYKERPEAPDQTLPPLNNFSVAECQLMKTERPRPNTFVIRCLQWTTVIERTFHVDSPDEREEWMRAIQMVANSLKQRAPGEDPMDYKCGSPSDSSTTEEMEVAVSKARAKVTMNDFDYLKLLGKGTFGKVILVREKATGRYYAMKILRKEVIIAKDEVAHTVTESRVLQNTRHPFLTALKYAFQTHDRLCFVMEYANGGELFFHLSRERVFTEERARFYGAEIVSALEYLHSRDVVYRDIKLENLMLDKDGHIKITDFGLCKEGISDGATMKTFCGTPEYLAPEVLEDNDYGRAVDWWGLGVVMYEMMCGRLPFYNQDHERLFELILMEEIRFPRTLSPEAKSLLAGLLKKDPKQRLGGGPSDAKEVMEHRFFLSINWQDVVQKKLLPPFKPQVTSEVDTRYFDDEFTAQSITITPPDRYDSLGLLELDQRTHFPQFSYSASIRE
Source text: Akt2 inhibitory activity of compounds of the present invention was quantified employing the Akt2 TR-FRET assay as described in the following paragraphs.
as §1, with “Akt2” for “Akt1”, “cells and activated by PDK1” for “cells”, “3975).” for “3599).”
as §2, with “Akt2” for “Akt1”, “0.2” for “0.05”
The reaction was stopped by the addition of 5 μl of a solution of HTRF detection reagents (200 nM streptavidine-XL665 [Cisbio] and 1.5 nM anti-phosho-Serine antibody [Millipore, cat. #35-001] and 0.75 nM LANCE Eu-W 1024 labeled anti-mouse IgG antibody [Perkin Elmer]) in an aqueous EDTA-solution (100 mM EDTA, 0.1% (w/v) bovine serum albumin in 50 mM HEPES/NaOH pH 7.5).
The resulting mixture was incubated 1 h at 22° C. to allow the binding of the biotinylated phosphorylated peptide to the streptavidine-XL665 and the antibodies.
Subsequently the amount of phosphorylated substrate was evaluated by measurement of the resonance energy transfer from the anti-mouse-IgG-Eu-Chelate to the streptavidine-XL665. Therefore, the fluorescence emissions at 620 nm and 665 nm after excitation at 350 nm was measured in a TR-FRET reader, e.g. a Rubystar (BMG Labtechnologies, Offenburg, Germany) or a Viewlux (Perkin-Elmer). The ratio of the emissions at 665 nm and at […] was taken as the measure for the amount of phosphorylated substrate. The data were normalised (enzyme reaction without inhibitor=0% inhibition, all other assay components but no enzyme=100% inhibition).

SMILES	IC50 [1]	IC50 [2]
Cc1nc2nc(-c3ccc(C4(N)CCCC4)cc3)c(-c3ccccc3)cn2n1 [Example 1-1, 1-[4-(2-methyl-6-phenyl-[1,2,4]triazolo[1,5-a]pyrimidin-5-yl)-phenyl]-cyclopentylamine]	2570 nM	3260 nM
Cc1nc2nc(-c3ccc(C4(N)CC4)cc3)c(-c3ccccc3)cn2n1 [Example 1-2, 1-[4-(2-methyl-6-phenyl-[1,2,4]triazolo[1,5-a]pyrimidin-5-yl)-phenyl]-cyclopropylamine]	3010 nM	2220 nM
Cc1nc2nc(-c3ccc(C4(N)CCC4)cc3)c(-c3ccccc3)c(C)n2n1 [Example 1-3, 1-[4-(2,7-dimethyl-6-phenyl-[1,2,4]triazolo[1,5-a]pyrimidin-5-yl)-phenyl]-cyclobutylamine]	526 nM	1020 nM
NC1(c2ccc(-c3nc4nccn4cc3-c3ccccc3)cc2)CCC1 [Example 2-0, 1-[4-(6-Phenyl-imidazo[1,2-a]pyrimidin-7-yl)-phenyl]-cyclobutylamine]	2220 nM	1640 nM
NC1(c2ccc(-c3nc4nccn4c(NC4CC4)c3-c3ccccc3)cc2)CCC1 [Example 2-2, {7-[4-(1-Amino-cyclobutyl)-phenyl]-6-phenyl-imidazo[1,2-a]pyrimidin-5-yl)-cyclopropylamine]	2050 nM	1580 nM
NC1(c2ccc(-c3nc4nccn4c(N4CCOCC4)c3-c3ccccc3)cc2)CCC1 [Example 2-3, 1-[4-(5-Morpholino-4-yl-6-phenyl-imidazo[1,2-a]pyrimidin-7-yl)phenyl]-cyclobutylamine]	13100 nM	7470 nM
COC[C@H](C)Nc1c(-c2ccccc2)c(-c2ccc(C3(N)CCC3)cc2)nc2nccn12 [Example 2-4, {7-[4-(1-Amino-cyclobutyl)-phenyl]-6-phenyl-imidazo[1,2-a]pyrimidin-5-yl}-((S)-2-methoxy-1-methyl-ethyl)-amine]	10600 nM	1270 nM
COC[C@H](C)Nc1c(-c2ccccc2)c(-c2ccc(C3(N)CCC3)cc2)nc2nc(C)cn12 [Example 2-6, {7-[4-(1-Amino-cyclobutyl)-phenyl]-2-methyl-6-phenyl-imidazo[1,2-a]pyrimidin-5-yl}-((S)-2-methoxy-1-methyl-ethyl)-amine]	13000 nM	2860 nM
NC1(c2ccc(-c3nc4nc(-c5ccccn5)nn4c(NC4CC4)c3-c3ccccc3)cc2)CCC1 [Example 3-1, {5-[4-(1-Aminocyclobutyl)-phenyl]-6-phenyl-2-pyridine-2-yl-[1,2,4]triazolo[1,5-a]pyrimidin-7-yl}-cyclopropylamine]	2380 nM	2320 nM
NC1(c2ccc(-c3nc4nc(-c5ccccn5)nn4c(N4CCOCC4)c3-c3ccccc3)cc2)CCC1 [Example 3-2, 1-[4-(7-Morpholine-4-yl-6-phenyl-2-pyridine-2-yl-[1,2,4]triazolo[1,5-a]pyrimidin-5-yl)-phenyl]-cyclobutylamine]	≥ 20000 nM	6640 nM
CCOC(=O)C1(Nc2c(-c3ccccc3)c(-c3ccc(C4(N)CCC4)cc3)nc3nc(C)nn23)CCC1 [Example 3-3, 1-{5-[4-(1-Aminocyclobutyl)-phenyl]-2-methyl-6-phenyl-[1,2,4]triazolo[1,5-a]pyrimidin-7-ylamino}-cyclobutanecarboxylic acid ethyl ester]	≥ 20000 nM	1120 nM
COCCCNc1c(-c2ccccc2)c(-c2ccc(C3(N)CCC3)cc2)nc2nc(C)nn12 [Example 3-4, {5-[4-(1-Amino-cyclobutyl)-phenyl]-2-methyl-6-phenyl-[1,2,4]triazolo[1,5-a]pyrimidin-7-yl}-(3-methoxy-propyl)-amine]	18200 nM	9350 nM
Cc1nc2nc(-c3ccc(C4(N)CCC4)cc3)c(-c3ccccc3)c(NCCc3ccc(F)cc3)n2n1 [Example 3-5, {5-[4-(1-Amino-cyclobutyl)-phenyl]-2-methyl-6-phenyl-[1,2,4]triazolo[1,5-a]pyrimidin-7-yl}-[2-(4-fluoro-phenyl)-ethyl]-amine]	18800 nM	3560 nM

Next, values leading:

IC50 [1]	IC50 [2]	SMILES
1830 nM	877 nM	COCCNc1nc2nc(-c3ccc(C4(N)CCC4)cc3)c(-c3ccccc3)cn2n1 [Example 5-0, {5-[4-(1-Amino-cyclobutyl)-phenyl]-6-phenyl-[1,2,4]triazolo[1,5-a]pyrimidin-2-yl}-(2-methoxy-ethyl)-amine]
958 nM	502 nM	CCNc1nc2nc(-c3ccc(C4(N)CCC4)cc3)c(-c3ccccc3)cn2n1 [Example 5-1, {5-[4-(1-amino-cyclobutyl)-phenyl]-6-phenyl-[1,2,4]triazolo[1,5-a]pyrimidin-2-yl}-ethyl-amine]
5650 nM	2550 nM	NC1(c2ccc(-c3nc4nc(NCc5ccncc5)nn4cc3-c3ccccc3)cc2)CCC1 [Example 5-6, {5-[4-(1-amino-cyclobutyl)-phenyl]-6-phenyl-[1,2,4]triazolo[1,5-a]pyrimidin-2-yl}-pyridin-4-ylmethyl-amine]
672 nM	549 nM	Cc1nc2nc(-c3ccc(C4(N)CCC4)cc3)c(-c3ccccc3)c(NC(C)C)n2n1 [Example 5-7, {5-[4-(1-amino-cyclobutyl)-phenyl]-2-methyl-6-phenyl-[1,2,4]triazolo[1,5-a]pyrimidin-7-yl}-isopropyl-amine]
854 nM	541 nM	Cc1nc2nc(-c3ccc(C4(N)CCC4)cc3)c(-c3ccccc3)c(NCC3CC3)n2n1 [Example 5-9, {5-[4-(1-amino-cyclobutyl)-phenyl]-2-methyl-6-phenyl-[1,2,4]triazolo[1,5-a]pyrimidin-7-yl}-cyclopropylmethyl-amine]
930 nM	982 nM	CNc1c(-c2ccccc2)c(-c2ccc(C3(N)CCC3)cc2)nc2nc(C3CC3)nn12 [Example 5-10, {5-[4-(1-amino-cyclobutyl)-phenyl]-2-cyclopropyl-6-phenyl-[1,2,4]triazolo[1,5-a]pyrimidin-7-yl}-methyl-amine]
